# ChEMBL document CHEMBL3885861, “Open TG-GATES”
# Species: Rattus norvegicus
# Assay: Open TG-GATES - Regimen: Single
# Format: toxicity, organism-based, Sprague-Dawley
# Parameters: regimen Single, gender Male, age 6 weeks
# Details: in vivo, po, route gavage; for APTT / Bas / Eos / Fbg / Hb / Ht / MCH / MCHC / MCV / Mono / PT / Plat / RBC / Ret / WBC: tissue Blood; for ALT / CRE / DBIL / GLC / IP / K / LDH / Na / PL / RALB / TBIL / TC / TG / TP / gamma-GTP / ALP: tissue Plasma
# [1] = 200 mg/kg, 3 h, dose level Middle
# [2] = 200 mg/kg, 6 h, dose level Middle
# [3] = 200 mg/kg, 9 h, dose level Middle
# [4] = 200 mg/kg, 24 h, dose level Middle
# [5] = 600 mg/kg, 3 h, dose level High
# [6] = 600 mg/kg, 6 h, dose level High
# [7] = 600 mg/kg, 9 h, dose level High
# [8] = 600 mg/kg, 24 h, dose level High
compound,measurement,setting,value
CCN(CC)C(=S)SSC(=S)N(CC)CC,TERMINAL_BW,[1],213.2 g
same,APTT,[1],21.8 s
same,Bas,[1],0%
same,Eos,[1],0.8%
same,Fbg,[1],313.2 mg/dL
same,Hb,[1],13.4 g/dL
same,Ht,[1],41.1%
same,MCH,[1],20.2 pg
same,MCHC,[1],32.6%
same,MCV,[1],62.1 fL
same,Mono,[1],4.2%
same,PT,[1],16.2 s
same,Plat,[1],124 x10_4/uL
same,RBC,[1],662.4 x10_4/ul
same,Ret,[1],7.4%
same,WBC,[1],77.1 x10_2/uL
same,ALT,[1],40.6 IU/L
same,CRE,[1],0.1 mg/dL
same,DBIL,[1],0 mg/dL
same,GLC,[1],181.2 mg/dL
same,IP,[1],9.4 mg/dL
same,K,[1],4.1 meq/L
same,LDH,[1],215.4 IU/L
same,Na,[1],142 meq/L
same,PL,[1],147.8 mg/dL
same,RALB,[1],3.2 g/dL
same,TBIL,[1],0.004 mg/dL
same,TC,[1],80.8 mg/dL
same,TG,[1],84.2 mg/dL
same,TP,[1],5.7 g/dL
same,gamma-GTP,[1],1 IU/L
same,TERMINAL_BW,[2],210.4 g
same,APTT,[2],22.1 s
same,Bas,[2],0%
same,Eos,[2],0.4%
same,Fbg,[2],299.4 mg/dL
same,Hb,[2],13 g/dL
same,Ht,[2],40.2%
same,MCH,[2],20.2 pg
same,MCHC,[2],32.3%
same,MCV,[2],62.4 fL
same,Mono,[2],2.2%
same,PT,[2],15.9 s
same,Plat,[2],123.4 x10_4/uL
same,RBC,[2],644.6 x10_4/ul
same,Ret,[2],7.2%
same,WBC,[2],67.3 x10_2/uL
same,ALP,[2],1309.6 IU/L
same,ALT,[2],37.2 IU/L
same,CRE,[2],0.1 mg/dL
same,DBIL,[2],0.004 mg/dL
same,GLC,[2],194 mg/dL
same,IP,[2],9.6 mg/dL
same,K,[2],4.1 meq/L
same,LDH,[2],192 IU/L
same,Na,[2],141 meq/L
same,PL,[2],125.4 mg/dL
same,RALB,[2],3.1 g/dL
same,TBIL,[2],0.012 mg/dL
same,TC,[2],73.2 mg/dL
same,TG,[2],33 mg/dL
same,TP,[2],5.4 g/dL
same,gamma-GTP,[2],0.8 IU/L
same,TERMINAL_BW,[3],213.7 g
same,APTT,[3],22.8 s
same,Bas,[3],0%
same,Eos,[3],0.6%
same,Fbg,[3],297 mg/dL
same,Hb,[3],13.1 g/dL
same,Ht,[3],40.6%
same,MCH,[3],20 pg
same,MCHC,[3],32.3%
same,MCV,[3],61.8 fL
same,Mono,[3],2%
same,PT,[3],15.9 s
same,Plat,[3],119.2 x10_4/uL
same,RBC,[3],659 x10_4/ul
same,Ret,[3],7.8%
same,WBC,[3],81.1 x10_2/uL
same,ALP,[3],1366 IU/L
same,ALT,[3],34.6 IU/L
same,CRE,[3],0.1 mg/dL
same,DBIL,[3],0.012 mg/dL
same,GLC,[3],195 mg/dL
same,IP,[3],9.1 mg/dL
same,K,[3],4.1 meq/L
same,LDH,[3],141.2 IU/L
same,Na,[3],140.6 meq/L
same,PL,[3],137.8 mg/dL
same,RALB,[3],3.2 g/dL
same,TBIL,[3],0.02 mg/dL
same,TC,[3],80.4 mg/dL
same,TG,[3],46.8 mg/dL
same,TP,[3],5.5 g/dL
same,gamma-GTP,[3],0.8 IU/L
same,TERMINAL_BW,[4],216 g
same,APTT,[4],22 s
same,Bas,[4],0%
same,Eos,[4],0.4%
same,Fbg,[4],301.2 mg/dL
same,Hb,[4],13 g/dL
same,Ht,[4],39.9%
same,MCH,[4],20 pg
same,MCHC,[4],32.5%
same,MCV,[4],61.6 fL
same,Mono,[4],2.4%
same,PT,[4],16.6 s
same,Plat,[4],111.9 x10_4/uL
same,RBC,[4],649.2 x10_4/ul
same,Ret,[4],6.6%
same,WBC,[4],91.8 x10_2/uL
same,ALP,[4],1198.6 IU/L
same,ALT,[4],38.4 IU/L
same,CRE,[4],0.1 mg/dL
same,DBIL,[4],0.004 mg/dL
same,GLC,[4],170 mg/dL
same,IP,[4],7 mg/dL
same,K,[4],4.1 meq/L
same,LDH,[4],160.6 IU/L
same,Na,[4],142.2 meq/L
same,PL,[4],131.6 mg/dL
same,RALB,[4],2.9 g/dL
same,TBIL,[4],0.012 mg/dL
same,TC,[4],80.8 mg/dL
same,TG,[4],83 mg/dL
same,TP,[4],5.3 g/dL
same,gamma-GTP,[4],1.2 IU/L
same,TERMINAL_BW,[5],218 g
same,APTT,[5],21.3 s
same,Bas,[5],0%
same,Eos,[5],0.8%
same,Fbg,[5],293.2 mg/dL
same,Hb,[5],13.4 g/dL
same,Ht,[5],41.4%
same,MCH,[5],20 pg
same,MCHC,[5],32.4%
same,MCV,[5],61.6 fL
same,Mono,[5],4.2%
same,PT,[5],16.2 s
same,Plat,[5],126.4 x10_4/uL
same,RBC,[5],674 x10_4/ul
same,Ret,[5],7.9%
same,WBC,[5],82 x10_2/uL
same,ALP,[5],1358.2 IU/L
same,ALT,[5],45.8 IU/L
same,CRE,[5],0.1 mg/dL
same,DBIL,[5],0.01 mg/dL
same,GLC,[5],194.8 mg/dL
same,IP,[5],10.1 mg/dL
same,K,[5],4 meq/L
same,LDH,[5],250.2 IU/L
same,Na,[5],141.4 meq/L
same,PL,[5],132 mg/dL
same,RALB,[5],3.1 g/dL
same,TBIL,[5],0.008 mg/dL
same,TC,[5],76.6 mg/dL
same,TG,[5],57.8 mg/dL
same,TP,[5],5.6 g/dL
same,gamma-GTP,[5],1 IU/L
same,TERMINAL_BW,[6],211.8 g
same,APTT,[6],23.9 s
same,Bas,[6],0%
same,Eos,[6],0.8%
same,Fbg,[6],304 mg/dL
same,Hb,[6],13.7 g/dL
same,Ht,[6],42.2%
same,MCH,[6],20.5 pg
same,MCHC,[6],32.4%
same,MCV,[6],63.2 fL
same,Mono,[6],2.4%
same,PT,[6],16.3 s
same,Plat,[6],117.9 x10_4/uL
same,RBC,[6],668.2 x10_4/ul
same,Ret,[6],7.1%
same,WBC,[6],73.5 x10_2/uL
same,ALP,[6],1429.6 IU/L
same,ALT,[6],37.6 IU/L
same,CRE,[6],0.1 mg/dL
same,DBIL,[6],0.01 mg/dL
same,GLC,[6],207.2 mg/dL
same,IP,[6],9.7 mg/dL
same,K,[6],4.3 meq/L
same,LDH,[6],182.6 IU/L
same,Na,[6],140.6 meq/L
same,PL,[6],134.2 mg/dL
same,RALB,[6],3.1 g/dL
same,TBIL,[6],0.014 mg/dL
same,TC,[6],80.8 mg/dL
same,TG,[6],23.4 mg/dL
same,TP,[6],5.5 g/dL
same,gamma-GTP,[6],1.2 IU/L
same,TERMINAL_BW,[7],206.5 g
same,APTT,[7],23.7 s
same,Bas,[7],0.2%
same,Eos,[7],0.6%
same,Fbg,[7],299 mg/dL
same,Hb,[7],13.3 g/dL
same,Ht,[7],40.6%
same,MCH,[7],20.7 pg
same,MCHC,[7],32.8%
same,MCV,[7],63.2 fL
same,Mono,[7],2.2%
same,PT,[7],16.2 s
same,Plat,[7],119.4 x10_4/uL
same,RBC,[7],642.4 x10_4/ul
same,Ret,[7],7.3%
same,WBC,[7],77.1 x10_2/uL
same,ALP,[7],1243.4 IU/L
same,ALT,[7],36.6 IU/L
same,CRE,[7],0.1 mg/dL
same,DBIL,[7],0.014 mg/dL
same,GLC,[7],200.4 mg/dL
same,IP,[7],8.9 mg/dL
same,K,[7],4.2 meq/L
same,LDH,[7],184 IU/L
same,Na,[7],140.6 meq/L
same,PL,[7],136 mg/dL
same,RALB,[7],3.2 g/dL
same,TBIL,[7],0.02 mg/dL
same,TC,[7],79.2 mg/dL
same,TG,[7],57.4 mg/dL
same,TP,[7],5.6 g/dL
same,gamma-GTP,[7],1 IU/L
same,TERMINAL_BW,[8],222.1 g
same,APTT,[8],21.6 s
same,Bas,[8],0%
same,Eos,[8],0.8%
same,Fbg,[8],290.2 mg/dL
same,Hb,[8],12.7 g/dL
same,Ht,[8],39%
same,MCH,[8],19.5 pg
same,MCHC,[8],32.4%
same,MCV,[8],60.1 fL
same,Mono,[8],2.2%
same,PT,[8],16 s
same,Plat,[8],115.3 x10_4/uL
same,RBC,[8],649.8 x10_4/ul
same,Ret,[8],6.8%
same,WBC,[8],94.6 x10_2/uL
same,ALP,[8],1144.8 IU/L
same,ALT,[8],40.2 IU/L
same,CRE,[8],0.1 mg/dL
same,DBIL,[8],0.014 mg/dL
same,GLC,[8],177.8 mg/dL
same,IP,[8],7.7 mg/dL
same,K,[8],3.9 meq/L
same,LDH,[8],183.4 IU/L
same,Na,[8],142.4 meq/L
same,PL,[8],149.4 mg/dL
same,RALB,[8],3.1 g/dL
same,TBIL,[8],0.024 mg/dL
same,TC,[8],91 mg/dL
same,TG,[8],92.6 mg/dL
same,TP,[8],5.5 g/dL
same,gamma-GTP,[8],1 IU/L
